Results on four molecules are retold here after US4863935A, “Mitomycin compounds having useful anti-tumor activity” (priority 1986, dated 1989).

The subject of one data set is bone marrow. The note with it: background statement; cited from earlier work.
Another data set has as its system tumour. The note with it: background statement; cited from earlier work.
A further data set relates to Sarcoma 180 solid tumour. In words: ED50 against Sarcoma 180 solid tumour implanted in mice. Format: in vivo, male mouse (ddy strain). The note with it: for (CI)c: (CI of test compound)/(CI of mitomycin C), CI = LD50/ED50; for ED50: Mus musculus, Sarcoma-180, iv, 168 h, i.v. (tail vein) 24 h after implantation, tumour volume at 7 days, dose for T/C of 0.5. A digest of the protocol: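 Male ddy mice received 5×10^6 sarcoma 180 ascites-derived cells subcutaneously at the right armpit; compound in saline (± Tween 80) given by tail vein 24 h later, 5 mice/group. Tumour volume (a×b^2)/2 on day 7 gave T/C; ED50 is the dose at T/C 0.5 from least-squares log-dose regression.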

The nature of data set [1]: LD50 acute toxicity, ddy mice, single abdominal injection. The note with it: mouse, in vivo, ip, 5 ddy mice, 14 days observation, Behrens-Koerber's method.
The subject of data set [2] is lymphocytic Leukemia P-388. Description: Anti-tumour activity against lymphocytic Leukemia P-388 in mice. The note with it: for (ILSmax)c: (ILSmax of test compound)/(ILSmax of mitomycin C), ILS=(T-C)/C×100; for (TI)c: (TI of test compound)/(TI of mitomycin C), TI = OPD/dose which results in ILS30; for ED (optimal dose, highest survival) / ED (30% increase of life-span): Mus musculus, P388, ip, i.p. 24 h after implantation; for ED (optimal dose, highest survival): dose resulting in the highest survival ratio, 30 days, read-out: OPD; for ED (30% increase of life-span): read-out: Dose needed to give ILS30. It is filed as in vivo, mouse, female of CDF strain.

Molecules are shown by their SMILES.

On to `CO[C@@]12[C@H](COC(N)=O)C3=C(C(=O)C(C)=C(N)C3=O)N1C[C@@H]1N[C@@H]12` [mitomycin C], for which the “toxicity to bone marrow” value in the data set on bone marrow is “strong toxicity to bone marrow”. The anti-tumour activity entry with tumour is on record as “strong anti-tumour activity”.
As a reminder, the ED50 is the midpoint of the dose-response relation. For orientation: LD50 means the dose expected to kill half of the subjects tested. For `CCC(C)NC(=O)SCCNC1=C(C)C(=O)C2=C(C1=O)[C@@H](COC(N)=O)[C@@]1(OC)[C@H]3N[C@H]3CN21` (some centres unmarked) [Compound 30, 7-N--(2-sec-butylaminocarbonylthioethyl)mitomycin C], in the data set with Sarcoma 180 solid tumour, the “(CI)c” value was determined as 1.53 and the 50% effective dose (ED50) was determined as 9.6 mg/kg. Moreover, the LD50 at 336 h in data set [1] stood at 37.5 mg/kg. In data set [2], the “(ILSmax)c” value was 1.60; the “(TI)c” value amounted to 3.20; the ED (optimal dose, highest survival) amounted to 25 mg/kg; the ED (30% increase of life-span) came out at 0.65 mg/kg.
Turning to `CO[C@@]12[C@H](COC(N)=O)C3=C(C(=O)C(C)=C(NCCSC(=O)NC(C)(C)C)C3=O)N1C[C@@H]1N[C@@H]12` [Compound 5, 7-N--(2-t-butylaminocarbonylthioethyl)mitomicin C], in the data set with Sarcoma 180 solid tumour, the “(CI)c” value turned out to be 1.22 and the ED50 turned out to be 8.8 mg/kg. Also, the LD50 at 336 h in data set [1] amounted to 30 mg/kg. Moreover, in data set [2], the “(ILSmax)c” value is given as > 1.17; the “(TI)c” value stood at 1.80; the ED (optimal dose, highest survival) is 25 mg/kg; the ED (30% increase of life-span) came to 1.32 mg/kg.
Take `CCNC(=S)SCCNC1=C(C)C(=O)C2=C(C1=O)[C@@H](COC(N)=O)[C@@]1(OC)[C@H]3N[C@H]3CN21` [Compound 39, 7-N--(2-ethylaminothiocarbonylthioethyl)mitomycin C]: in the data set with Sarcoma 180 solid tumour, the “(CI)c” value worked out at 2.40 and the ED50 came to 7.8 mg/kg. The 50% lethal dose (LD50) at 336 h in data set [1] turned out to be 45 mg/kg. Moreover, in data set [2], the “(ILSmax)c” value is on record as > 1.60; the “(TI)c” value came out at 2.74; the ED (optimal dose, highest survival) was determined as 25 mg/kg; the ED (30% increase of life-span) was found to be 0.57 mg/kg.
